Results as given in patent US12016843B2, “Compositions and methods for the treatment of amyotrophic lateral sclerosis, parkinson's disease, parkinson's disease with dementia, dementia with lewy bodies, and multiple system atrophy” (priority 2019, dated 2024).

Assays:
[1] = system: SOD1 G93A high copy transgenic mice; test: Plasma neurofilament light chain (NfL) levels in SOD1 G93A mouse model of ALS; type: in vivo; conditions: for plasma NfL levels Mean Diff. (Dunnett's multiple comparisons test, Vehicle vs. 0.5 mg/kg): 0.5 mg/kg daily ip; for plasma NfL levels Mean Diff. (Dunnett's multiple comparisons test, Vehicle vs. 0.5 mg/kg) / plasma NfL levels Mean Diff. (Dunnett's multiple comparisons test, Vehicle vs. 5.0 mg/kg): 10 weeks; for plasma NfL levels Mean Diff. (Dunnett's multiple comparisons test, Vehicle vs. 5.0 mg/kg): 5.0 mg/kg daily ip
Method: Study Design. Three experimental groups of n=20 (10 male, 10 female) SOD1 G93A high copy transgenic mice were dosed daily via intraperitoneal administration of vehicle control; (R)-2-amino-N—((S)-1-(((S)-5-amino-1-(3-benzyl-1,2,4-oxadiazol-5-yl)pentyl)amino)-3-(4-hydroxy-2,6-dimethylphenyl)-1-oxopropan-2-yl)-5-guanidinopentanamide (as its tris-HCl salt-(Ia)) at 0.5 mg/kg; or (R)-2-amino-N—((S)-1-(((S)-5-amino-1-(3-benzyl-1,2,4-oxadiazol-5-yl)pentyl)amino)-3-(4-hydroxy-2,6-dimethylphenyl)-1-oxopropan-2-yl)-5-guanidinopentanamide (as its tris-HCl salt—(Ia)) at 5.0 mg/kg. Animals were dosed beginning at 8 weeks of age and dosing was continued until humane end of life (defined by the inability of animal to right itself from either side within 30 seconds when placed on its side). Experimental endpoints and in-life collections and observations were as follows: • 1. Bodyweight measurement. Daily recording of weight. • 2. Neurological scoring. Weekly NeuroScore, a qualitative assessment of neurological disease progression based upon a five-point grading system. Scoring is defined as follows: • Score 0: Full extension of hind legs away from the lateral midline when the mouse is suspended by its tail, and the mouse can hold this extension for 2 seconds, being suspended 3 times consecutively. • Score 1: Collapse or partial collapse of the leg extension toward the lateral midline or trembling of hind legs during the tail suspension. • Score 2: Toes curl under at least twice during walking of 12 inches, or any part of the foot is dragging along the cage bottom or table. • Score 3: Rigid paralysis or minimal joint movement, the foot is not being used for forward motion. • Score 4: The mouse cannot right itself within 30 sec from either side. • 3. Grip strength test. Weekly forelimb grip strength, performed as follows: • a. Subjects are weighed and acclimated to the testing room for at least 60 min. • b. Equipment: Bioseb grip strength meter equipped with a grid for grasping that is suited for mice. • c. Mice are lowered towards the grid by their tails to allow for visual placing and for the mouse to grip the grid with their forepaws. • d. Subjects are firmly pulled horizontally away from the grid (parallel to the bench) for 3 consecutive trials with a brief (approximately 30 sec) rest period on the bench between trials. • e. The average force in grams of the 3 forepaw and 3 all-paws trials are analyzed with and without normalization to body weight. • 4. Retro-orbital blood collection. Bi-weekly retroorbital eye bleeds to determine drug exposure levels as well as levels of neurofilament light chain, a biomarker of axonal damage shown to correlate with ALS disease progression in human patients. Briefly, mice are sedated with isoflurane (5% induction, 2% maintenance) in O2. When they reach the plane of anesthesia, mice are withdrawn from isoflurane and blood is collected with a 25 μL glass capillary tube from the retro-orbital sinus, alternating sides for successive bleeds. 200 μL of whole blood is collected in a BD K2EDTA Microtainer collection tube containing 3.5 μL of 25X HALT protease inhibitor cocktail and kept on ice for processing. Mice are allowed to recover from the anesthesia, then returned to their home cage. Results […]

[2] = system: mitochondrial respiration in brain homogenate from the infarcted area; test: Mitochondrial respiration (respiratory control ratio) in brain homogenate after endothelin-1 induced ischemic stroke; type: in vivo, Sprague Dawley rats; conditions: rats, ET-1 middle cerebral artery occlusion, 5 mg/kg sc at 24 and 4 hours prior to ischemia, measured 24 hours after onset
Method: Ischemic stroke was induced in Sprague Dawley rats via middle cerebral artery occlusion with the vasoconstrictive peptide endothelin-1 (ET-1; 240 pmol per injection). Compound Ia was administered to each rat at 24 and 4 hours prior to onset of ischemia via subcutaneous injection at 5 mg/kg. Mitochondrial respiration was measured in brain homogenate excised from the infarcted area 24 hours following the onset of ischemia using high resolution respirometry (OxyGraph 02K). Respiratory control ratio was calculated as complex I supported oxidative phosphorylation divided by Complex I linked leak respiration. Results are illustrated in FIG. 5B, ** p<0.01, one-way ANOVA.

[3] = Drug levels in whole brain homogenate by LC-MS/MS after subcutaneous injection; type: in vivo; conditions: Sprague Dawley rats, 5 mg/kg subcutaneous, over 36 hours, compared with elamipretide
Method: Sprague Dawley rats were injected subcutaneously with 5 mg/kg of Compound Ia or elamipretide (n=4 per time-point). Animals were sacrificed at the indicated timepoints and transcardial perfusion was performed. Drug levels in whole brain homogenate were determined by LC-MS/MS.

[4] = system: corticospinal motor neurons derived from prp-TDP-43^A315T-UeGFP mouse model; test: Neurite length in primary corticospinal motor neurons from prp-TDP-43^A315T-UeGFP mice; type: cell-based; conditions: 10 nM, 100 nM and 1000 nM, vs DMSO vehicle
Method: Studies were performed in primary cells derived from the prp-TDP-43^A315T-UeGFP mouse model (Gautam, et al. Acta Neuropathol. 2019 January; 137(1): 47-69). Briefly, these mice express a pathogenic human TDP43 transgene which leads to severe structural alterations in the mitochondria, nucleus, and endoplasmic reticulum on the background of an eGFP reporter mouse. Both transgene (prp) and reporter (UCHL1) are driven by tissue specific promoter elements, leading to the generation of fluorescent green corticospinal motor neurons carrying the TDP43 mutation. Utilizing the endogenous fluorescence of the eGFP reporter, corticospinal motor neurons can be directly visualized in situ. Mixed cortical cultures were derived from the brains of prp-TDP-43^A315T-UeGFP mice and allowed to divide in serum free minimal medium for 3 cell divisions. Culture media +/− drug was removed and replenished daily. Doses of Compound Ia utilized in the experiment were 10 nM; 100 nM and 1000 nM. Drug was prepared in DMSO vehicle, and DMSO was used as vehicle control (<1% volume/volume). Cells were imaged using standard fluorescent microscopy techniques. Neurite length was calculated using automated imaging software (NIH Image J) on GFP expressing cells. Three independent biological replicates were performed, with a minimum of 10 motor neurons imaged per each replicate. […]

## Cc1cc(O)cc(C)c1C[C@H](NC(=O)[C@H](N)CCCNC(=N)N)C(=O)N[C@@H](CCCCN)c1nc(Cc2ccccc2)no1.Cl.Cl.Cl [Compound Ia, (R)-2-amino-N—((S)-1-(((S)-5-amino-1-(3-benzyl-1,2,4-oxadiazol-5-yl)pentyl)amino)-3-(4-hydroxy-2,6-dimethylphenyl)-1-oxopropan-2-yl)-5-guanidinopentanamide·3HCl]
[1]; female SOD1 G93A mice
  plasma NfL levels Mean Diff. (Dunnett's multiple comparisons test, Vehicle vs. 0.5 mg/kg): −1075
  plasma NfL levels Mean Diff. (Dunnett's multiple comparisons test, Vehicle vs. 5.0 mg/kg): 1291
[1]; male SOD1 G93A mice
  plasma NfL levels Mean Diff. (Dunnett's multiple comparisons test, Vehicle vs. 0.5 mg/kg): 897.8
  plasma NfL levels Mean Diff. (Dunnett's multiple comparisons test, Vehicle vs. 5.0 mg/kg): 3469
[1]; male SOD1 G93A mice, 5.0 mg/kg, 10 weeks of administration
  accumulation of NfL in plasma: statistically significant impact on the accumulation of NfL
[2]
  mitochondrial respiration in brain (respiratory control ratio): restored mitochondrial respiration in brain
[3]
  brain exposure (drug levels in whole brain homogenate): higher than that of elamipretide
[4]
  average neurite length per cell: improved neurite length at all doses assessed
